Structures are written as SMILES. Bounds are passed on as bounds.

Test [1] deals with T1, GPR40 (Homo sapiens, UniProt O14842). Briefly: Cell-based aequorin assay (CHO cells stably expressing GPR40 and aequorin). More on the design: expressed in transfected cells; host or cells: CHO cells stably transfected with GPR40 and aequorin. The settings on record: activation of human GPR40, CHO cells, 0.01% HSA. The procedure, abridged: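 CHO cells stably co-expressing GPR40 and aequorin, loaded with coelenterazine (1 ug/mL, 2 h, room temperature) in H/HBSS with 20 mM Hepes and 0.01% fatty acid-free HSA. Serially diluted compounds added; luminescence recorded over 20 s. EC50 from dose-response of maximum relative light units.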
T1 sequence (O14842 whole entry): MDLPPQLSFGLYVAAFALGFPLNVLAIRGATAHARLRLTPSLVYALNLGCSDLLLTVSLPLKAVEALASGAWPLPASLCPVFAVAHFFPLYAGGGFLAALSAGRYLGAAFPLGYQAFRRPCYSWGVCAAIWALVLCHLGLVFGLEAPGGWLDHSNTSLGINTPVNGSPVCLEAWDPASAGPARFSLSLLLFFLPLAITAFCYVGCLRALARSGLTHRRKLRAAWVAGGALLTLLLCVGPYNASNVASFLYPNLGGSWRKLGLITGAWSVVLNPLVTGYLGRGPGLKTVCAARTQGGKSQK

Test [2] addresses T1, GPR40. Description: Inositol phosphate accumulation assay (A9_GPR40 cells). The test is classed as cell-based. More on the design: expressed in transfected cells; host or cells: CHO cells stably transfected with GPR40 and aequorin. As to conditions: inositol phosphate assay, A9_GPR40 cells, 1 hour; read-out: IP3 EC50. The gist of the method: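 [^3H] inositol phosphate accumulation was measured by SPA after 1 h compound exposure at 37° C in HBSS/10 mM LiCl containing HSA, ending with a 20 mM formic acid quench. The GPR40-transfected A9 cells had first been labelled overnight (16 h) with 1 μCi/mL ^3H-inositol.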

As for `CCCCCc1cc(COc2cccc(C(C)CC(=O)O)c2)ccc1-c1cc(OC)ccc1F` (single isomer, unassigned) [Example 64.14, (3R)-3-(3-(((2′-Fluoro-5′-(methyloxy)-2-pentyl-1,1′-biphenyl-4-yl)methyl)oxy)phenyl)butanoic acid or (3S)-3-(3-(((2′-fluoro-5′-(methyloxy)-2-pentyl-1,1′-biphenyl-4-yl)methyl)oxy)phenyl)butanoic acid], the EC50 on GPR40 [1] and on GPR40 [2] was 0.1 to 1 µM in each case.
As for `CC1(C)CCC[C@@H]1c1cc(COc2cccc([C@@H](CC(=O)O)C3CC3)c2)ccc1-c1cccc(OC(F)F)c1` (single isomer, unassigned) [Example 66.11], the results for the 50% effective concentration (EC50) at GPR40 [1] and at GPR40 [2] were 0.1 to 1 µM and 0.01 to 0.1 µM, respectively.
On to `COc1ccc(F)c(-c2ccc(COc3cccc([C@H](C)CC(=O)O)c3)cc2C2=CCCC2(C)C)c1` (single isomer, unassigned) [Example 55, (3R)-3-(3-(((2-(5,5-Dimethyl-1-cyclopenten-1-yl)-2′-fluoro-5′-(methyloxy)-1,1′-biphenyl-4-yl)methyl)oxy)phenyl)butanoic acid or (3S)-3-(3-(((2-(5,5-dimethyl-1-cyclopenten-1-yl)-2′-fluoro-5′-(methyloxy)-1,1′-biphenyl-4-yl)methyl)oxy)phenyl)butanoic acid], for which the EC50 at GPR40 [1] was 0.1 to 1 µM; on GPR40 [2], 0.01 to 0.1 µM.
For `CCC(CC(=O)O)c1cccc(OCc2ccc(-c3cc(OC)ccc3F)c(C(C)C(C)(C)C)c2)c1F` (single isomer, unassigned) [Example 77.5] the same measures were 0.1 to 1 µM and < 0.01 µM.
The matching figures for `COc1ccc(F)c(-c2ccc(COc3cccc(C(CC(=O)O)CC4CC4)c3)cc2N2CCCCC2)c1` (single isomer, unassigned) [Example 69.28, (3R)-4-Cyclopropyl-3-(3-(((2′-fluoro-5′-(methyloxy)-2-(1-piperidinyl)-1,1′-biphenyl-4-yl)methyl)oxy)phenyl)butanoic acid or (3S)-4-cyclopropyl-3-(3-(((2′-fluoro-5′-(methyloxy)-2-(1-piperidinyl)-1,1′-biphenyl-4-yl)methyl)oxy)phenyl)butanoic acid]: 0.1 to 1 µM and 0.01 to 0.1 µM.
For `COc1cc(-c2ccc(COc3cccc([C@@H](CC(=O)O)C4CC4)c3F)cc2[C@@H](OC)C(C)(C)C)c(F)cn1` (single isomer, unassigned) [Example 83.21] the same measures were 0.01 to 0.1 µM and < 0.01 µM.
With `COc1ccc(F)c(-c2ccc(COc3cccc(C(CC(=O)O)C4CC4)c3F)cc2CC(C)(C)C)c1` (single isomer, unassigned) [Example 83.15, (3S)-3-Cyclopropyl-3-(3-(((2-(2,2-dimethylpropyl)-2′-fluoro-5′-(methyloxy)-1,1′-biphenyl-4-yl)methyl)oxy)-2-fluorophenyl)propanoic acid or (3R)-3-cyclopropyl-3-(3-(((2-(2,2-dimethylpropyl)-2′-fluoro-5′-(methyloxy)-1,1′-biphenyl-4-yl)methyl)oxy)-2-fluorophenyl)propanoic acid], the figures for the concentration for a half-maximal effect (EC50) at GPR40 [1] and at GPR40 [2] were 0.1 to 1 µM and < 0.01 µM, respectively.
For `COc1cccc(-c2ccc(COc3cccc(C(CC(=O)O)C4CC4)c3)cc2C2CCCCCC2)c1` (single isomer, unassigned) [Example 66.9, (3S)-3-(3-(((2-Cycloheptyl-3′-(methyloxy)-1,1′-biphenyl-4-yl)methyl)oxy)phenyl)-3-cyclopropylpropanoic acid or (3R)-3-(3-(((2-cycloheptyl-3′-(methyloxy)-1,1′-biphenyl-4-yl)methyl)oxy)phenyl)-3-cyclopropylpropanoic acid] the same measures were 0.1 to 1 µM and 0.01 to 0.1 µM.

(Values after patent US8030354B2, “Substituted biphenyl GPR40 modulators” (Amgen Inc., priority 2007, dated 2011).)
